# Measurements published in the kinase profiling compilation of Christmann-Franck et al. (2016).
# Assays:
# Experiment in all cases: KINOMEscan competition binding
# Details in all cases: compound 10.0 µM
# NUAK1 (human) = NUAK1 (human) (UniProt O60285)
# MINK1 (human) = MINK1 (human) (UniProt Q8N4C8)
# TGFBR1 (human) = TGFBR1 (human) (UniProt P36897)
# CDK3 (human) = CDK3 (human) (UniProt Q00526)
# RPS6KA3 KD1 (human) = RPS6KA3 KD1 (human) (UniProt P51812)
# PRKAA1 (human) = PRKAA1 (human) (UniProt Q13131)
# EPHA6 (human) = EPHA6 (human) (UniProt Q9UF33)
# DCLK2 (human) = DCLK2 (human) (UniProt Q8N568)
# MAP2K1 (human) = MAP2K1 (human) (UniProt Q02750)
# TNK2 (human) = TNK2 (human) (UniProt Q07912)
# ROS1 (human) = ROS1 (human) (UniProt P08922)
# RPS6KA4 KD2 (human) = RPS6KA4 KD2 (human) (UniProt O75676)
# ULK1 (human) = ULK1 (human) (UniProt O75385)
# ULK1 (human), sequence (O75385 whole entry, looked up): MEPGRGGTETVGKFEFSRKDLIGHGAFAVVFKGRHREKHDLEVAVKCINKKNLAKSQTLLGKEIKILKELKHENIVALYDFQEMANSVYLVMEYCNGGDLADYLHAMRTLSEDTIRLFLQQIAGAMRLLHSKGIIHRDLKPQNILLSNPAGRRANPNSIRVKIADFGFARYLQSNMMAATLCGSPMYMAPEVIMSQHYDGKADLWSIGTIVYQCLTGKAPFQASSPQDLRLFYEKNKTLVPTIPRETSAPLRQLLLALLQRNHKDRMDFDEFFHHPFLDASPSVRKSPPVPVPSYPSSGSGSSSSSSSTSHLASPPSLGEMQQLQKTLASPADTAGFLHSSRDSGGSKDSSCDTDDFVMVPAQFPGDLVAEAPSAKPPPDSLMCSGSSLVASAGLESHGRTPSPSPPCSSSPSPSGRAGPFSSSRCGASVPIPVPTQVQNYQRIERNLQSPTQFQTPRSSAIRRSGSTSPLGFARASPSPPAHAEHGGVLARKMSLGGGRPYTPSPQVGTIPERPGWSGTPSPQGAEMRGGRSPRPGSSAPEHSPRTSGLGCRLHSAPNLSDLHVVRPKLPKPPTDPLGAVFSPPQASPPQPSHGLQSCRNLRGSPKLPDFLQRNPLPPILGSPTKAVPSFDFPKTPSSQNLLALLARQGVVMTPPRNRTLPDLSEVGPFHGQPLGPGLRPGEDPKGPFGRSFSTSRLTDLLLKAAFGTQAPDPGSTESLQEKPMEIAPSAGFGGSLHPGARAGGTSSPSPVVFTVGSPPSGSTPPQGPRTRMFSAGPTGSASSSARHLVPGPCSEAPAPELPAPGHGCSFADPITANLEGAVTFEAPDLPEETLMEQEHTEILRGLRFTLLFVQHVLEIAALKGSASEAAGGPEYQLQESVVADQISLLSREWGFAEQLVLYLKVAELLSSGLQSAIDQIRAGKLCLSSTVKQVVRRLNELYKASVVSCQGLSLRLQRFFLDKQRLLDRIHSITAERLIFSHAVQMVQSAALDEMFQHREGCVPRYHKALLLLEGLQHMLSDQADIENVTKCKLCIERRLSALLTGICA
# CSNK2A2 (human) = CSNK2A2 (human) (UniProt P19784)
# EPHB4 (human) = EPHB4 (human) (UniProt P54760)
# PAK6 (human) = PAK6 (human) (UniProt Q9NQU5)
# ABL2 (human) = ABL2 (human) (UniProt P42684)
# ZAP70 (human) = ZAP70 (human) (UniProt P43403)
# ZAP70 (human), sequence (P43403 whole entry, looked up): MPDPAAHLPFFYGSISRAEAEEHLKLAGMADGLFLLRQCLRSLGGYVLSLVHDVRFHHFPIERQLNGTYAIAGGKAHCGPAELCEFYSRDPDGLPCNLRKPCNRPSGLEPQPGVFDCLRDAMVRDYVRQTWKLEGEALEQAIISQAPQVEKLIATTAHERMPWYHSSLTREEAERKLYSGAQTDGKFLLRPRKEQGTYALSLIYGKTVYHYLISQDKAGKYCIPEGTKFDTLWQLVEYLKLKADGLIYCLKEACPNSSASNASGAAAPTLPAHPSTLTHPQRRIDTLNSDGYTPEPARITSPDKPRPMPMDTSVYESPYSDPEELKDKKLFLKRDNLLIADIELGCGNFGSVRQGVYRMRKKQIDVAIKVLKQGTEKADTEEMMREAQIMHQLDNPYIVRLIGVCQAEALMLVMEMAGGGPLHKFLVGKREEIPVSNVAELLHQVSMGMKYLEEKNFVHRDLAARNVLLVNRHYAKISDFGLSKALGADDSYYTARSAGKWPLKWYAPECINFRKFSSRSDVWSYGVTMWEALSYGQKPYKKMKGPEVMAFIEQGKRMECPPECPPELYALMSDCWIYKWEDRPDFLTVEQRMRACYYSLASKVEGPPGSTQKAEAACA
# CSNK1G2 (human) = CSNK1G2 (human) (UniProt P78368)
# MELK (human) = MELK (human) (UniProt Q14680)
# STK24 (human) = STK24 (human) (UniProt Q9Y6E0)
# CSNK2A1 (human) = CSNK2A1 (human) (UniProt P68400)
# STK38L (human) = STK38L (human) (UniProt Q9Y2H1)
# FLT1 (human) = FLT1 (human) (UniProt P17948)
# MAP3K10 (human) = MAP3K10 (human) (UniProt Q02779)
# WEE1 (human) = WEE1 (human) (UniProt P30291)
# BMPR2 (human) = BMPR2 (human) (UniProt Q13873)
# AURKB (human) = AURKB (human) (UniProt Q96GD4)
# AURKB (human), sequence (Q96GD4 whole entry, looked up): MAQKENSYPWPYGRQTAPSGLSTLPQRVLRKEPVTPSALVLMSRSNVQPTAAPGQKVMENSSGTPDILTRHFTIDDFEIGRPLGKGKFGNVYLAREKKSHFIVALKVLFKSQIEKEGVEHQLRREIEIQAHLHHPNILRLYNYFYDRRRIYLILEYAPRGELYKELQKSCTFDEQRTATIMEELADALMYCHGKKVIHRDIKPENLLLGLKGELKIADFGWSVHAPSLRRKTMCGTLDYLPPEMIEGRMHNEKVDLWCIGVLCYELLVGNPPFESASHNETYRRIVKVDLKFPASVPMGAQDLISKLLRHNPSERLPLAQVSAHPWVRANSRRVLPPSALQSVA
# PIP5K1A (human) = PIP5K1A (human) (UniProt Q99755)
# FER (human) = FER (human) (UniProt P16591)
# ERBB4 (human) = ERBB4 (human) (UniProt Q15303)
# PTK2 (human) = PTK2 (human) (UniProt Q05397)
# CSK (human) = CSK (human) (UniProt P41240)
# PIP4K2B (human) = PIP4K2B (human) (UniProt P78356)
# PRKD3 (human) = PRKD3 (human) (UniProt O94806)
# PRKD3 (human), sequence (O94806 whole entry, looked up): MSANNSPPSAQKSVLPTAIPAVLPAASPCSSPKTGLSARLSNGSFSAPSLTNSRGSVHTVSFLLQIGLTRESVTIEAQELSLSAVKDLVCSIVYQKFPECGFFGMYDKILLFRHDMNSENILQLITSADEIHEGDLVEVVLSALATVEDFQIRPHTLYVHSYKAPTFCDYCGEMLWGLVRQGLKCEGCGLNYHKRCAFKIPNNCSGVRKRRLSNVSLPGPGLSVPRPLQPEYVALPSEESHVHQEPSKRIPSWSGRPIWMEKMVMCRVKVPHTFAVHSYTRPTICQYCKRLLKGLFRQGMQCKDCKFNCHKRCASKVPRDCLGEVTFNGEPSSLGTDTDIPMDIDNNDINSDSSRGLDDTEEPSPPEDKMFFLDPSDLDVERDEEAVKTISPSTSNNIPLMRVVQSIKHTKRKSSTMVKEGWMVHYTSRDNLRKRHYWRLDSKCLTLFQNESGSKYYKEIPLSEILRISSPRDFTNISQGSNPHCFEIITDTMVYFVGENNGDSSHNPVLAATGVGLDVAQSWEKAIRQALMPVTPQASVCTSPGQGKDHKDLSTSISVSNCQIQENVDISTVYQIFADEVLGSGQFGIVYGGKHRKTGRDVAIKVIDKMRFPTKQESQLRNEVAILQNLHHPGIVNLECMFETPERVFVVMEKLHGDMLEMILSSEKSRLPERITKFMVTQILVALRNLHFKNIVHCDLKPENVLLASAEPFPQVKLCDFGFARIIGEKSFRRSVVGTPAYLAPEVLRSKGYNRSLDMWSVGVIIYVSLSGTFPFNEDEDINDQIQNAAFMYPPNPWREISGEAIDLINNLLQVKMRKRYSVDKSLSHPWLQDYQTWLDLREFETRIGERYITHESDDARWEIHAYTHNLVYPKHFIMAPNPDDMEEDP
# RIOK3 (human) = RIOK3 (human) (UniProt O14730)
# MAP3K5 (human) = MAP3K5 (human) (UniProt Q99683)
# ULK3 (human) = ULK3 (human) (UniProt Q6PHR2)
# STK36 (human) = STK36 (human) (UniProt Q9NRP7)
# STK36 (human), sequence (Q9NRP7 whole entry, looked up): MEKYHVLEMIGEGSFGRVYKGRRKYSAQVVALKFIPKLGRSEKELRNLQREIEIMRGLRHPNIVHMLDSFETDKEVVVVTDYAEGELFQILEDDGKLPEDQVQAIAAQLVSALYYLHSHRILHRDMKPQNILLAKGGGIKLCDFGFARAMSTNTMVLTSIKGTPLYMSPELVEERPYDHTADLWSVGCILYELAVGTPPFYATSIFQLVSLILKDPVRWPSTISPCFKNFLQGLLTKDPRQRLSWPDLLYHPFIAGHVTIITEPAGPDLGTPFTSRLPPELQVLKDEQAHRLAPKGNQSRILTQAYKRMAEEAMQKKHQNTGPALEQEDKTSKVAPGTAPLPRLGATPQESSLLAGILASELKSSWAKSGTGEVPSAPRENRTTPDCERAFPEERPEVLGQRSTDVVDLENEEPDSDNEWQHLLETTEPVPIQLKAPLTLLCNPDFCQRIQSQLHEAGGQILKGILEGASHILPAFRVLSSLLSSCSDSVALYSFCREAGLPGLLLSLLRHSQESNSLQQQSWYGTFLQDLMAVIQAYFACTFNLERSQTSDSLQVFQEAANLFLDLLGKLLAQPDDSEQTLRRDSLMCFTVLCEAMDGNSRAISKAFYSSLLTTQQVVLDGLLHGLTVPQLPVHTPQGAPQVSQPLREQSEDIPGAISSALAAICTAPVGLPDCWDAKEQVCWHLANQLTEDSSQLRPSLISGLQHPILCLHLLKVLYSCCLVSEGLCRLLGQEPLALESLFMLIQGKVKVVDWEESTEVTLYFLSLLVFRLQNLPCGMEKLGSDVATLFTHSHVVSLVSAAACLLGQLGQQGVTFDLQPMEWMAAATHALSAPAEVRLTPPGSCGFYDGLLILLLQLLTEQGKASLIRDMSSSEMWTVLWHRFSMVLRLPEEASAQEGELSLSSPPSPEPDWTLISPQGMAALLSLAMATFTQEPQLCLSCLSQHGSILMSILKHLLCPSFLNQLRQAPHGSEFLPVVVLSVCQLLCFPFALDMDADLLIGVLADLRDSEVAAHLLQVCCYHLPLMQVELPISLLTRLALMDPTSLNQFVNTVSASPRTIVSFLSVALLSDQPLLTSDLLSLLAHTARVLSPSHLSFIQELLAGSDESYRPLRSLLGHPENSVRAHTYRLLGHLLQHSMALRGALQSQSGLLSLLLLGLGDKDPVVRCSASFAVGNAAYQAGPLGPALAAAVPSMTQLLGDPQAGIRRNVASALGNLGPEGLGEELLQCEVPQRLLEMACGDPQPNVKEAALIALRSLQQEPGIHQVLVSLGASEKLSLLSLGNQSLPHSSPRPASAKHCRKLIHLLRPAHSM
# CDK7 (human) = CDK7 (human) (UniProt P50613)
# CDK7 (human), sequence (P50613 whole entry, looked up): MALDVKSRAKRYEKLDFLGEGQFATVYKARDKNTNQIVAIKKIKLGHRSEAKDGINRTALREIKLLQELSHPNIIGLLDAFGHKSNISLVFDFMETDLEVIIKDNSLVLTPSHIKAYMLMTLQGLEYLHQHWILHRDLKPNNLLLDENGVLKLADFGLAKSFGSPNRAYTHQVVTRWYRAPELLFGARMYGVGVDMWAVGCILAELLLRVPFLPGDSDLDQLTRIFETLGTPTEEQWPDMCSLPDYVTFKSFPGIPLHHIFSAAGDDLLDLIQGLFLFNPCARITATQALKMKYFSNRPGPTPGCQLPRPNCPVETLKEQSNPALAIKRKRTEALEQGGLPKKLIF
# CDK3 (human), sequence (Q00526 whole entry, looked up): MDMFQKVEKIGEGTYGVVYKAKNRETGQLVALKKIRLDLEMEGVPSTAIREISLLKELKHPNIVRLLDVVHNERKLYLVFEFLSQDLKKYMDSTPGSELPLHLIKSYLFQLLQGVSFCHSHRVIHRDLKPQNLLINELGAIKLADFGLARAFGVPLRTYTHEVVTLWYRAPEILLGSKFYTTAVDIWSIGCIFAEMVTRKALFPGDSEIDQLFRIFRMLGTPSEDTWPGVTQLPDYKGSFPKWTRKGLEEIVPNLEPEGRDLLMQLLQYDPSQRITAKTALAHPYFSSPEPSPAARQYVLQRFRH
structure (smiles),measurement,setting,value
C[C@@H](Oc1cc(-n2cnc3ccc(CN4CCN(C)CC4)cc32)sc1C(N)=O)c1ccccc1C(F)(F)F,"kinase still bound, per cent of control",NUAK1 (human),17%
same,"kinase still bound, per cent of control",MINK1 (human),29%
same,"kinase still bound, per cent of control",TGFBR1 (human),99%
same,"kinase still bound, per cent of control",CDK3 (human),100%
same,"kinase still bound, per cent of control",RPS6KA3 KD1 (human),0.5%
same,"kinase still bound, per cent of control",PRKAA1 (human),57%
same,"kinase still bound, per cent of control",EPHA6 (human),92%
same,"kinase still bound, per cent of control",DCLK2 (human),100%
same,"kinase still bound, per cent of control",MAP2K1 (human),92%
same,"kinase still bound, per cent of control",TNK2 (human),100%
same,"kinase still bound, per cent of control",ROS1 (human),84%
same,"kinase still bound, per cent of control",RPS6KA4 KD2 (human),0.55%
same,"kinase still bound, per cent of control",ULK1 (human),41%
same,"kinase still bound, per cent of control",CSNK2A2 (human),4.6%
same,"kinase still bound, per cent of control",EPHB4 (human),100%
same,"kinase still bound, per cent of control",PAK6 (human),98%
same,"kinase still bound, per cent of control",ABL2 (human),90%
same,"kinase still bound, per cent of control",ZAP70 (human),69%
same,"kinase still bound, per cent of control",CSNK1G2 (human),97%
same,"kinase still bound, per cent of control",MELK (human),49%
same,"kinase still bound, per cent of control",STK24 (human),81%
same,"kinase still bound, per cent of control",CSNK2A1 (human),13%
same,"kinase still bound, per cent of control",STK38L (human),100%
same,"kinase still bound, per cent of control",FLT1 (human),100%
same,"kinase still bound, per cent of control",MAP3K10 (human),92%
same,"kinase still bound, per cent of control",WEE1 (human),100%
same,"kinase still bound, per cent of control",BMPR2 (human),97%
same,"kinase still bound, per cent of control",AURKB (human),80%
same,"kinase still bound, per cent of control",PIP5K1A (human),14%
same,"kinase still bound, per cent of control",FER (human),100%
same,"kinase still bound, per cent of control",ERBB4 (human),88%
same,"kinase still bound, per cent of control",PTK2 (human),99%
same,"kinase still bound, per cent of control",CSK (human),100%
same,"kinase still bound, per cent of control",PIP4K2B (human),5.8%
same,"kinase still bound, per cent of control",PRKD3 (human),12%
same,"kinase still bound, per cent of control",RIOK3 (human),6.6%
same,"kinase still bound, per cent of control",MAP3K5 (human),100%
same,"kinase still bound, per cent of control",ULK3 (human),100%
same,"kinase still bound, per cent of control",STK36 (human),98%
same,"kinase still bound, per cent of control",CDK7 (human),33%
O=C1Nc2ccc(I)cc2/C1=C/c1cc(Br)c(O)c(Br)c1,"kinase still bound, per cent of control",NUAK1 (human),100%
same,"kinase still bound, per cent of control",MINK1 (human),2.8%
same,"kinase still bound, per cent of control",TGFBR1 (human),10%
same,"kinase still bound, per cent of control",CDK3 (human),90%
same,"kinase still bound, per cent of control",RPS6KA3 KD1 (human),36%
same,"kinase still bound, per cent of control",PRKAA1 (human),100%
same,"kinase still bound, per cent of control",EPHA6 (human),100%
same,"kinase still bound, per cent of control",DCLK2 (human),94%
same,"kinase still bound, per cent of control",MAP2K1 (human),68%
same,"kinase still bound, per cent of control",TNK2 (human),74%
same,"kinase still bound, per cent of control",ROS1 (human),99%
same,"kinase still bound, per cent of control",RPS6KA4 KD2 (human),47%
same,"kinase still bound, per cent of control",ULK1 (human),100%
same,"kinase still bound, per cent of control",CSNK2A2 (human),3.2%
same,"kinase still bound, per cent of control",EPHB4 (human),100%
same,"kinase still bound, per cent of control",PAK6 (human),73%
same,"kinase still bound, per cent of control",ABL2 (human),66%
same,"kinase still bound, per cent of control",ZAP70 (human),84%
same,"kinase still bound, per cent of control",CSNK1G2 (human),100%
same,"kinase still bound, per cent of control",MELK (human),99%
same,"kinase still bound, per cent of control",STK24 (human),97%
same,"kinase still bound, per cent of control",CSNK2A1 (human),4.2%
same,"kinase still bound, per cent of control",STK38L (human),31%
same,"kinase still bound, per cent of control",FLT1 (human),100%
same,"kinase still bound, per cent of control",MAP3K10 (human),93%
same,"kinase still bound, per cent of control",WEE1 (human),100%
same,"kinase still bound, per cent of control",BMPR2 (human),100%
same,"kinase still bound, per cent of control",AURKB (human),9.4%
same,"kinase still bound, per cent of control",PIP5K1A (human),19%
same,"kinase still bound, per cent of control",FER (human),100%
same,"kinase still bound, per cent of control",ERBB4 (human),50%
same,"kinase still bound, per cent of control",PTK2 (human),98%
same,"kinase still bound, per cent of control",CSK (human),92%
same,"kinase still bound, per cent of control",PIP4K2B (human),10%
same,"kinase still bound, per cent of control",PRKD3 (human),100%
same,"kinase still bound, per cent of control",RIOK3 (human),17%
same,"kinase still bound, per cent of control",MAP3K5 (human),100%
same,"kinase still bound, per cent of control",ULK3 (human),12%
same,"kinase still bound, per cent of control",STK36 (human),14%
same,"kinase still bound, per cent of control",CDK7 (human),67%
CN(C)C/C=C/C(=O)Nc1cccc(Nc2ncc3c(n2)N(C)c2ccccc2C(=O)N3C)c1,"kinase still bound, per cent of control",NUAK1 (human),0.85%
same,"kinase still bound, per cent of control",MINK1 (human),29%
same,"kinase still bound, per cent of control",TGFBR1 (human),25%
same,"kinase still bound, per cent of control",CDK3 (human),100%
same,"kinase still bound, per cent of control",RPS6KA3 KD1 (human),29%
same,"kinase still bound, per cent of control",PRKAA1 (human),0.45%
same,"kinase still bound, per cent of control",EPHA6 (human),91%
same,"kinase still bound, per cent of control",DCLK2 (human),0.5%
same,"kinase still bound, per cent of control",MAP2K1 (human),82%
same,"kinase still bound, per cent of control",TNK2 (human),4.4%
same,"kinase still bound, per cent of control",ROS1 (human),27%
same,"kinase still bound, per cent of control",RPS6KA4 KD2 (human),70%
same,"kinase still bound, per cent of control",ULK1 (human),0.15%
same,"kinase still bound, per cent of control",CSNK2A2 (human),87%
same,"kinase still bound, per cent of control",EPHB4 (human),83%
same,"kinase still bound, per cent of control",PAK6 (human),66%
same,"kinase still bound, per cent of control",ABL2 (human),1.4%
same,"kinase still bound, per cent of control",ZAP70 (human),60%
same,"kinase still bound, per cent of control",CSNK1G2 (human),69%
same,"kinase still bound, per cent of control",MELK (human),43%
same,"kinase still bound, per cent of control",STK24 (human),98%
same,"kinase still bound, per cent of control",CSNK2A1 (human),100%
same,"kinase still bound, per cent of control",STK38L (human),54%
same,"kinase still bound, per cent of control",FLT1 (human),83%
same,"kinase still bound, per cent of control",MAP3K10 (human),89%
same,"kinase still bound, per cent of control",WEE1 (human),100%
same,"kinase still bound, per cent of control",BMPR2 (human),71%
same,"kinase still bound, per cent of control",AURKB (human),0.1%
same,"kinase still bound, per cent of control",PIP5K1A (human),9.9%
same,"kinase still bound, per cent of control",FER (human),100%
same,"kinase still bound, per cent of control",ERBB4 (human),100%
same,"kinase still bound, per cent of control",PTK2 (human),14%
same,"kinase still bound, per cent of control",CSK (human),82%
same,"kinase still bound, per cent of control",PIP4K2B (human),36%
same,"kinase still bound, per cent of control",PRKD3 (human),19%
same,"kinase still bound, per cent of control",RIOK3 (human),16%
same,"kinase still bound, per cent of control",MAP3K5 (human),100%
same,"kinase still bound, per cent of control",ULK3 (human),45%
same,"kinase still bound, per cent of control",STK36 (human),100%
same,"kinase still bound, per cent of control",CDK7 (human),9.6%
